This note sets out measurements from US12534493B2, “Bridged nucleoside and nucleotide” (Liid Pharmaceuticals, Inc., priority 2020, dated 2026).

Type in all cases: binding
Data set [1] has as its system double-stranded hairpin DNA: 5′-d(GGCAGAAGAAAAAGAGACGC)-C18 spacer-d(GCGTCTCTTTTTCTTCTGCC)-3′ (SEQ ID NO: 23). Put plainly: Melting temperature (Tm) measurement, triple strand-forming ability, with double-stranded hairpin DNA. Particulars: triplex with double-stranded hairpin DNA; for ΔTm/mod.: change per modification vs natural oligonucleotide; for Tm: footnote: 10 mM sodium phosphate buffer (pH 7.0), 200 mM NaCl, 5 mM MgCl2. Here is the method:
[…] The sample solution was cooled to 15° C., and the measurement was started. The temperature was raised to 90° C. at a rate of 0.5° C. per minute, and the absorbance at 260 nm was plotted at intervals of 0.5° C. All Tm values were calculated by the midline method and the average of three independent measurement results was taken.

Data set [2] deals with single-stranded DNA: 5′-d(ACGAGAACATCC)-3′ (SEQ ID NO: 12). Put plainly: Melting temperature (Tm) measurement, double strand-forming ability, with single-stranded DNA. Particulars: duplex with single-stranded DNA SEQ ID NO: 12; for Tm: 10 mM phosphate buffer (pH7.0), 200 mM NaCl, 2.5 μM each oligonucleotide; for ΔTm/mod.: change per modification vs natural oligonucleotide. Here is the method: (§1) A sample solution ([…]) with final concentrations of 10 mM phosphate buffer (pH7.0), 200 mM sodium chloride, and 2.5 μM each oligonucleotide was immersed in boiling water and slowly cooled to room temperature. The sample solution was cooled to 20° C., and the measurement was started. The temperature was raised to 90° C. at a rate of 0.5° C. per minute, and the absorbance at 260 nm was plotted at intervals of 0.5° C. All Tm values were calculated by the midline method and the average of three independent measurement results was taken.
(§2) conditions: 10 mM sodium phosphate buffer (pH7.0) containing 200 mM NaCl, […] of each strand

Data set [3] deals with single-stranded RNA: 5′-r(ACGAGAACAUCC)-3′ (SEQ ID NO: 11). Put plainly: Melting temperature (Tm) measurement, double strand-forming ability, with single-stranded RNA. Particulars: duplex with single-stranded RNA SEQ ID NO: 11; for Tm: 10 mM phosphate buffer (pH7.0), 200 mM NaCl, 2.5 μM each oligonucleotide; for ΔTm/mod.: change per modification vs natural oligonucleotide. As to the method:
as §1, §2

Regarding “5′ -TCTTCTTXTTCTCT-3′: modified oligonucleotide with one X modification; C shows 2′-deoxy-5-methylcytidine (DNA TCTTCTTTTTCTCT; X modified nucleotide; 5-methylcytidines; (2)..(2) 2′-Deoxy-5-methylcytidine; (5)..(5) 2′-Deoxy-5-methylcytidine; misc_difference (8)..(8) Me-TaNA; (11)..(11) 2′-Deoxy-5-methylcytidine; (13)..(13) 2′-Deoxy-5-methylcytidine)”, in data set [1], the ΔTm/mod. entry was “+5.0 °C” and the Tm is 36 °C.
Regarding “5′ -TCTTCTTYTTCTCT-3′: modified oligonucleotide with one Y modification; C shows 2′-deoxy-5-methylcytidine (DNA TCTTCTTTTTCTCT; Y modified nucleotide; 5-methylcytidines; (2)..(2) 2′-Deoxy-5-methylcytidine; (5)..(5) 2′-Deoxy-5-methylcytidine; misc_difference (8)..(8) LNA; (11)..(11) 2′-Deoxy-5-methylcytidine; (13)..(13) 2′-Deoxy-5-methylcytidine)”, in data set [1], the ΔTm/mod. result is “+6.0 °C” and the Tm came to 37 °C.
Take “5′-GGATGXXCTCGT-3′: modified oligonucleotide with two consecutive X modifications (DNA GGATGTTCTCGT; DNA oligonucleotide with modified nucleotide X, X not given here, further chemistry not given here)”: in data set [2], the Tm was determined as 58 °C and the ΔTm/mod. entry was “+3.5 °C”. Besides, in data set [3], the Tm stood at 66 °C and the ΔTm/mod. result was “+7.0 °C”.
With “5′ -TCTTCTXXXTCTCT-3′: modified oligonucleotide with three consecutive X modifications (DNA TCTTCTTTTTCTCT; three X modified nucleotides; (2)..(2) 2′-Deoxy-5-methylcytidine; (5)..(5) 2′-Deoxy-5-methylcytidine; misc_difference (7)..(7) Me-TaNA; misc_difference (8)..(8) Me-TaNA; misc_difference (9)..(9) Me-TaNA; (11)..(11) 2′-Deoxy-5-methylcytidine; (13)..(13) 2′-Deoxy-5-methylcytidine)”, in data set [1], the ΔTm/mod. entry is “+6.3 °C” and the Tm was 50 °C.
In the same order, the values of “5′ -TCTTCTZZZTCTCT-3′: modified oligonucleotide with three consecutive Z modifications (DNA TCTTCTTTTTCTCT; three Z modified nucleotides; (2)..(2) 2′-Deoxy-5-methylcytidine; (5)..(5) 2′-Deoxy-5-methylcytidine; misc_difference (7)..(7) ENA; misc_difference (8)..(8) ENA; misc_difference (9)..(9) ENA; (11)..(11) 2′-Deoxy-5-methylcytidine; (13)..(13) 2′-Deoxy-5-methylcytidine)” are “+5.7 °C” and 48 °C.
“5′-GGAYGYTCTCGT-3′: modified oligonucleotide with two separated Y modifications (DNA GGATGTTCTCGT; two Y modified nucleotides; misc_difference (4)..(4) LNA; misc_difference (6)..(6) LNA)”: in data set [2], the Tm is 58 °C and the ΔTm/mod. result is “+3.5 °C”. Also, in data set [3], the Tm came to 65 °C and the ΔTm/mod. entry is “+6.5 °C”.
For “5′ -TCTTCZTZTZCTCT-3′: modified oligonucleotide with three separated Z modifications (DNA TCTTCTTTTTCTCT; three Z modified nucleotides; (2)..(2) 2′-Deoxy-5-methylcytidine; (5)..(5) 2′-Deoxy-5-methylcytidine; misc_difference (6)..(6) ENA; misc_difference (8)..(8) ENA; misc_difference (10)..(10) ENA; (11)..(11) 2′-Deoxy-5-methylcytidine; (13)..(13) 2′-Deoxy-5-methylcytidine)”, in data set [1], the ΔTm/mod. result was “+6.7 °C” and the Tm was found to be 51 °C.
With “5′ -TCTTCTTTTTCTCT-3′: unmodified triplex-forming oligonucleotide; C shows 2′-deoxy-5-methylcytidine (DNA, all C 5-methyl, backbone not given here; triplex-forming oligonucleotide)”, the Tm in data set [1] is 31 °C.
On to “5′-GGAXGXTCTCGT-3′: modified oligonucleotide with two separated X modifications (DNA GGATGTTCTCGT; DNA oligonucleotide with modified nucleotide X, X not given here, further chemistry not given here)”, for which, in data set [2], the Tm is 58 °C and the ΔTm/mod. entry is “+3.5 °C”. For the same substance, in data set [3], the Tm came out at 66 °C and the ΔTm/mod. entry is “+7.0 °C”.
In the same order, the values of “5′-GGATGYYCTCGT-3′: modified oligonucleotide with two consecutive Y modifications (DNA GGATGTTCTCGT; two Y modified nucleotides; misc_difference (6)..(6) LNA; misc_difference (7)..(7) LNA)” are 57 °C, “+3.0 °C”, 64 °C and “+6.0 °C”.
As for “5′ -TCTTCTTZTTCTCT-3′: modified oligonucleotide with one Z modification; C shows 2′-deoxy-5-methylcytidine (DNA TCTTCTTTTTCTCT; Z modified nucleotide; 5-methylcytidines; (2)..(2) 2′-Deoxy-5-methylcytidine; (5)..(5) 2′-Deoxy-5-methylcytidine; misc_difference (8)..(8) ENA; (11)..(11) 2′-Deoxy-5-methylcytidine; (13)..(13) 2′-Deoxy-5-methylcytidine)”, in data set [1], the ΔTm/mod. entry is “+5.0 °C” and the Tm is 36 °C.
As for “5′-GGATGZZCTCGT-3′: modified oligonucleotide with two consecutive Z modifications (DNA GGATGTTCTCGT; two Z modified nucleotides; misc_difference (6)..(6) ENA; misc_difference (7)..(7) ENA)”, the Tm in data set [2] was determined as 57 °C; in data set [3] it was 64 °C. Further, the ΔTm/mod. entry in data set [2] is “+3.0 °C”; in data set [3], “+6.0 °C”.
Consider “5′ -TCTTCXTXTXCTCT-3′: modified oligonucleotide with three separated X modifications (DNA TCTTCTTTTTCTCT; three X modified nucleotides; (2)..(2) 2′-Deoxy-5-methylcytidine; (5)..(5) 2′-Deoxy-5-methylcytidine; misc_difference (6)..(6) Me-TaNA; misc_difference (8)..(8) Me-TaNA; misc_difference (10)..(10) Me-TaNA; (11)..(11) 2′-Deoxy-5-methylcytidine; (13)..(13) 2′-Deoxy-5-methylcytidine)”, for which, in data set [1], the ΔTm/mod. entry is “+7.3 °C” and the Tm came out at 53 °C.
For “5′ -TCTTCTYYYTCTCT-3′: modified oligonucleotide with three consecutive Y modifications (DNA TCTTCTTTTTCTCT; three Y modified nucleotides; (2)..(2) 2′-Deoxy-5-methylcytidine; (5)..(5) 2′-Deoxy-5-methylcytidine; misc_difference (7)..(7) LNA; misc_difference (8)..(8) LNA; misc_difference (9)..(9) LNA; (11)..(11) 2′-Deoxy-5-methylcytidine; (13)..(13) 2′-Deoxy-5-methylcytidine)” the same measures were “+5.0 °C” and 46 °C.
On to “5′-GGAZGZTCTCGT-3′: modified oligonucleotide with two separated Z modifications (DNA GGATGTTCTCGT; two Z modified nucleotides; misc_difference (4)..(4) ENA; misc_difference (6)..(6) ENA)”, for which, in data set [2], the Tm worked out at 57 °C and the ΔTm/mod. result was “+3.0 °C”. For the same substance, in data set [3], the Tm was 65 °C and the ΔTm/mod. result is “+6.5 °C”.
In the case of “5′ -TCTTCYTYTYCTCT-3′: modified oligonucleotide with three separated Y modifications (DNA TCTTCTTTTTCTCT; three Y modified nucleotides; (2)..(2) 2′-Deoxy-5-methylcytidine; (5)..(5) 2′-Deoxy-5-methylcytidine; misc_difference (6)..(6) LNA; misc_difference (8)..(8) LNA; misc_difference (10)..(10) LNA; (11)..(11) 2′-Deoxy-5-methylcytidine; (13)..(13) 2′-Deoxy-5-methylcytidine)”, in data set [1], the ΔTm/mod. result is “+6.7 °C” and the Tm was 51 °C.
